Data as given in PubChem BioAssay (NCI).
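Exposure lasted 48 hours, with cells grown in 96-well plates and compounds tested at five concentrations. GI50 marks 50% less growth. TGI: concentration producing complete growth inhibition.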

How the values were obtained:
Test in all cases: NCI tumour cell line growth inhibition, 48 h
[1] = test system: DU-145 prostate
[2] = test system: 786-0 renal
[3] = test system: SK-MEL-5 melanoma
[4] = test system: NCI-H23 lung
[5] = test system: PC-3 prostate
[6] = test system: NCI-H226 lung
[7] = test system: HCT-15 colon
[8] = test system: SNB-75 CNS
[9] = test system: HCT-116 colon
[10] = test system: OVCAR-5 ovarian

Structure (SMILES)	GI50 [1] [µM]	TGI [1] [µM]	GI50 [2] [µM]	TGI [2] [µM]	GI50 [3] [µM]	TGI [3] [µM]	GI50 [4] [µM]	TGI [4] [µM]	GI50 [5] [µM]	TGI [5] [µM]	GI50 [6] [µM]	TGI [6] [µM]	GI50 [7] [µM]	TGI [7] [µM]	GI50 [8] [µM]	TGI [8] [µM]	GI50 [9] [µM]	TGI [9] [µM]	GI50 [10] [µM]	TGI [10] [µM]
Cn1c(=O)c2c(nc(Nc3cc(=O)[nH]c(=O)[nH]3)n2Cc2ccccc2)n(C)c1=O	> 100	> 100	> 100	> 100	48	> 100	> 100	> 100	> 100	> 100	> 100	> 100	> 100	> 100	12.5	> 100	> 100	> 100	> 100	> 100
O=S(=O)([O-])c1ccc2c(c1)-c1nc-2nc2[n-]c(nc3nc(nc4[n-]c(n1)c1ccc(S(=O)(=O)[O-])cc41)-c1cc(S(=O)(=O)[O-])ccc1-3)c1ccc(S(=O)(=O)[O-])cc21.[Cu+2].[Na+]	> 100	> 100	> 44	> 69.6	> 100	> 100	98.4	> 100	9.44	> 100	> 100	> 100	0.977	36.4	> 67.3	> 100	15.8	> 100	> 100	> 100
C[As](C)SC1OC(CO)C(O)C1O (stereo not given)	0.189	0.799	0.174	0.655	0.215	0.583	0.61	3.89	0.656	9.79	1.18	5.21	0.238	1.12	0.912	2.62	0.302	1.24	0.864	5.33
CC1OC2CC(=O)OC2C2=C1C(=O)c1c(O)cccc1C2=O (stereo not given)	0.15	0.284	0.149	0.292	0.124	0.251	0.142	0.426	0.242	0.965	0.454	0.929	0.0314	0.15	0.13	0.317	0.0286	0.107	0.204	0.44
O=c1c2ccccc2[se]n1-c1cccnc1		34.6		87.4		26.7		53.2		48.6		> 100		52.8		43.8		> 100		> 100
Clc1ccc2c(NCCCNc3nccc(Nc4ccc(Br)cc4)n3)ccnc2c1	1.86	3.31	1.75	3.45	1.48	2.84	1.74	3.27	1.74	3.56	2.74	7.37	1.28	2.7	1.3	2.57	1.36	3.08	1.63	3.18
O=S(=O)(Nc1cc(F)cc(Cl)c1)c1ccc(-c2cnc(C3CC3)o2)cc1	3.58	23.2	4.88	20.9	1.83	11.7	2.62	18.3	1.25	14.3	3.46	17.9	0.529	17	0.344	3.33	0.719	16.4	4.43	21.5
CC(SC(C)C(=O)N/N=C/c1cccc(Cl)c1)C(=O)N/N=C\c1cccc(Cl)c1 (stereo not given)	6.58	25.2	14.5	35.5	16.3	31.4	14	32.6	4.36	25.8	17.5	43.1	32.3	> 100	4.28	19.5	2.65	7.94	17.4	44.2
Oc1[nH]c2ccccc2c1N=Nc1ccccc1Cl		> 100		31.1		> 100		> 100		> 100		> 100		> 100		> 79.6		> 100		> 100
NC(=NCCCOc1ccc(Cl)cc1)Nc1ccc(C(F)(F)F)cc1	2.62	7.26	1.65	4.32	1.61	2.97	2.06	5.54	1.67	5.25	3.87	19.2	1.72	4.15	0.914	7.67	1.32	2.74	2.67	13.7
Oc1ccc(Cl)cc1Cc1cc(Cl)cc(Cl)c1O	4.94	53.7	8.98	30.1	1.85	4.89	3.32	10.6	3.59	15.5	12.7	37.2	4.18	23.5	5.14	40.8	3.53	12.9	11.3	26.6
C#Cc1cccc(Nc2ncnc3cc(OC)c(OCCCCCCC(=O)NO)cc23)c1	0.136	4.45	0.448	4.68	0.177	0.496	0.383	2.57	0.273	5.38	0.853	4.81	1.17	6.1	0.0267	0.468	0.0791	3.33	0.121	3
COC(=O)/C=C/c1cc(O)c2oc(-c3ccc(O)c(O)c3)c(C(=O)OC)c2c1	0.369	12	3.67	16.3	0.221	1.61	0.43	7.81	0.437	13.1	3.85	22.3	0.0672	11.2	0.0376	1.41	0.329	9.14	3.56	16.5
COc1ccc(N2C(=O)C(c3ccccc3)(c3ccccc3)C23C(=O)N(C)c2ccccc23)cc1 (stereo not given)	> 100	> 100	> 100	> 100	> 100	> 100	> 100	> 100	> 100	> 100	> 100	> 100	> 100	> 100	89.1	> 100	> 100	> 100	> 100	> 100
